Laboratory results published in ChEMBL document CHEMBL1146379, “Solid phase synthesis and SAR of small molecule agonists for the GPR40 receptor” (Bioorg Med Chem Lett, 2007).
Values after ≈ are worked out from the molar mass of the structure shown.

Legend:
[1] = molecular target: T1, Free fatty acid receptor 1 (Homo sapiens, UniProt O14842); test: Agonist activity at GPR40 receptor expressed in CHO cells by reporter gene assay; assay type: functional, cell-based
[2] = molecular target: T1, Free fatty acid receptor 1; test: Agonist activity at GPR40 receptor; assay type: functional
[3] = Solubility at pH 7.4; assay type: physicochemical; conditions: buffer
[4] = Distribution coefficient, log D at pH 7.4; assay type: physicochemical; conditions: octanol/water

T1 sequence (O14842 whole entry): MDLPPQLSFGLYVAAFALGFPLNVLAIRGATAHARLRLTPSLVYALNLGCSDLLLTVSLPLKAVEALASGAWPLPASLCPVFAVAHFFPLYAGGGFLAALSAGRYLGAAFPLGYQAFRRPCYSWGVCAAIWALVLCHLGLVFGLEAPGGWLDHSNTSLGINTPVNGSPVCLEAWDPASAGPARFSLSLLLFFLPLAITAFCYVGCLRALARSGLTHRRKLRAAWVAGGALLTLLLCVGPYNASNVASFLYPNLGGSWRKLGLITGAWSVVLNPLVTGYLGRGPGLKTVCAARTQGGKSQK

Row | %max [1] [%] | EC50 [2] [µM] | solubility [3] [µg/mL] | logD [4] | SMILES
1 | 133 | – | – | – | O=C(O)CCc1ccc(NCc2ccc(C(F)(F)F)cc2)cc1
2 | 120 | 5.01 | – | – | O=C(O)CCc1ccc(NCc2cccc(F)c2)cc1
3 | 62 | 1.58 | – | – | O=C(O)CCCc1ccc(NCc2ccc(-c3ccccc3)cc2)cc1
4 | 148 | 0.398 | – | – | O=C(O)CCc1cccc(NCc2cccc(Oc3ccccc3)c2)c1
5 | 144 | 7.94 | – | – | O=C(O)CCc1ccc(NCc2ccccc2)cc1
6 | 4 | – | – | – | O=C(O)CCc1ccc(NCc2ncc[nH]2)cc1
7 | 21 | – | – | – | CC(C(=O)O)c1ccc(NCc2ccc(-c3ccccc3)cc2)cc1 (stereo unspecified)
8 | 37 | – | – | – | O=C(O)CCc1ccc(NCc2ccc(O)cc2)cc1
9 | 9 | – | – | – | O=C(O)CCc1ccc(NCc2ccc(C(=O)O)cc2)cc1
10 | 32 | 3.98 | – | – | O=C(O)Cc1ccc(NCc2cccc(Oc3ccccc3)c2)cc1
11 | 152 | 3.98 | – | – | Cc1ccc(CNc2ccc(CCC(=O)O)cc2)cc1
12 | 49 | – | – | – | N#Cc1ccc(CNc2ccc(CCC(=O)O)cc2)cc1
13 | 18 | – | – | – | NC(=O)c1cccc(CNc2ccc(CCC(=O)O)cc2)c1
14 | 74 | 3.16 | – | – | O=C(O)CCCc1ccc(NCc2cccc(Oc3ccccc3)c2)cc1
15 | 74 | 0.0501 | – | – | O=C(O)C1CC1c1ccc(NCc2cccc(Oc3ccccc3)c2)cc1 (stereo unspecified)
16 | 9 | – | – | – | CS(=O)(=O)Nc1cccc(CNc2ccc(CCC(=O)O)cc2)c1
17 | 111 | 0.251 | – | – | O=C(O)CCc1ccc(NCc2ccc(-c3ccccc3)cc2)cc1

Row | %max [1] [%] | EC50 [2] [µM] | solubility [3] [µg/mL] | logD [4] | SMILES
18 | 34 | 16.6 | – | – | CC(C(=O)O)c1ccc(NCc2cccc(Oc3ccccc3)c2)cc1 (stereo unspecified)
19 | 120 | 0.794 | – | – | O=C(O)CCc1ccc(NCc2cccc(Br)c2)cc1
20 | 4 | – | – | – | O=C(O)CCc1ccc(NCc2cccnc2)cc1
21 | 139 | 0.195 | – | – | O=C(O)CCc1ccc(NCc2ccc(Oc3ccccc3)cc2)cc1
22 | 69 | 12.3 | – | – | O=C(O)Cc1ccc(NCc2ccc(-c3ccccc3)cc2)cc1
23 | 159 | 1.26 | – | – | COc1ccc(CNc2ccc(CCC(=O)O)cc2)cc1
24 | 111 | 1 | 830 (≈ 2860 µM) | 0.98 | O=C(O)CCc1ccc(NCc2ccc(Cl)cc2)cc1
25 | 117 | 0.251 | – | – | O=C(O)CCc1ccc(NCc2ccc(Cl)c(Cl)c2)cc1
26 | 12 | – | – | – | CN(C)Cc1ccc(CNc2ccc(CCC(=O)O)cc2)cc1
27 | 123 | 0.794 | – | – | O=C(O)CCc1ccc(NCc2ccc3ccccc3c2)cc1
28 | 143 | – | – | – | O=C(O)CCc1ccc(NCc2ccc(Cl)s2)cc1
29 | 122 | 3.98 | – | – | O=C(O)CCc1ccc(NCc2ccccc2Cl)cc1
30 | 160 | 0.501 | – | – | O=C(O)CCc1cccc(NCc2ccc(-c3ccccc3)cc2)c1
31 | 141 | – | – | – | O=C(O)CCc1ccc(NCc2ccc3c(c2)OCO3)cc1
32 | 80 | 0.0398 | – | – | O=C(O)C1CC1c1ccc(NCc2ccc(-c3ccccc3)cc2)cc1 (stereo unspecified)
33 | 112 | 5.01 | – | – | O=C(O)CCc1ccc(NCc2cc(C(F)(F)F)cnc2Cl)cc1
